Results reported in PMC11650849, “Brain endothelial permeability, transport, and flow assessed over 10 orders of magnitude using the in situ brain perfusion technique” (Fluids and Barriers of the CNS, 2024).
Like-named read-outs stand apart in the source and are kept apart here.

Tests used:
[1] = biological target: Lat-1 (Rattus norvegicus, UniProt Q63016)
[2] = Octanol/water partition and distribution coefficients; conditions: for Log Doct 7.4: octanol distribution coefficient, pH 7.4; for Log Poct: octanol partition coefficient
[3] = rat
[4] = for Brain Kin: calculated at brain blood flow […] and rat serum fu; for Extraction (unbound) / Brain vascular extraction (total): calculated at brain blood flow […]; for Extraction (unbound): free drug; for Brain vascular extraction (total): with rat serum fu
[5] = ref Fenstermacher (papers of the 1990s and 2000s); cited from earlier work
[6] = Neutral fraction at pH 7.4 calculated from pKa; assay type: physicochemical
[7] = rat in vivo measurements; cited from earlier work
[8] = cited from earlier work
[9] = in vivo; conditions: rat, pH 7.4
[10] = cited from earlier work; for Log Poct: octanol partition coefficient
[11] = rat; remark: listed apart in the source
[12] = rat, in vivo; cited from earlier work
[13] = test system: Choline transporter; conditions: facilitated nutrients
[14] = biological target: T1, GLUT1 (Rattus norvegicus, UniProt P11167); experiment: In situ brain perfusion, facilitated nutrient transport by GLUT1; assay type: in vivo; conditions: facilitated nutrients
T1 construct: from tissue; host or cells: brain vascular endothelium (BBB) of the in situ perfused brain
T1 sequence (P11167 1-492): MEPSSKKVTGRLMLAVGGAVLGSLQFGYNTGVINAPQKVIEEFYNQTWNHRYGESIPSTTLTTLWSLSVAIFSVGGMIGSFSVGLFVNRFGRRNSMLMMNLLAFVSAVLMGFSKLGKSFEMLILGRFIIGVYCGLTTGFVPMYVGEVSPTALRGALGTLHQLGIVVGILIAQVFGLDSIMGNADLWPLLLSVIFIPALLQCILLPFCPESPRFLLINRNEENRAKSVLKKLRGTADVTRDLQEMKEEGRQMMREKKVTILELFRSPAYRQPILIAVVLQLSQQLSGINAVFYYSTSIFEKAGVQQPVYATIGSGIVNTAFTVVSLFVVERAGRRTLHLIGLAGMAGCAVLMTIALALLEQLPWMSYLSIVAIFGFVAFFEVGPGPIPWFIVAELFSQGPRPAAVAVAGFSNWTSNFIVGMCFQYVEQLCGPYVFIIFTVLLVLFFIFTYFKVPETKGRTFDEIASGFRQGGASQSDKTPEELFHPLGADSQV

[15] = pH 7.4
[16] = ref Chou and Rowland [106]; cited from earlier work
[17] = In situ rat brain perfusion (brain uptake Kin, extraction E, BBB PS)
[18] = biological target: MCT8 L-T3 Transporter (Rattus norvegicus, UniProt Q8K1P8)
MCT8 L-T3 Transporter, sequence (Q8K1P8 whole entry): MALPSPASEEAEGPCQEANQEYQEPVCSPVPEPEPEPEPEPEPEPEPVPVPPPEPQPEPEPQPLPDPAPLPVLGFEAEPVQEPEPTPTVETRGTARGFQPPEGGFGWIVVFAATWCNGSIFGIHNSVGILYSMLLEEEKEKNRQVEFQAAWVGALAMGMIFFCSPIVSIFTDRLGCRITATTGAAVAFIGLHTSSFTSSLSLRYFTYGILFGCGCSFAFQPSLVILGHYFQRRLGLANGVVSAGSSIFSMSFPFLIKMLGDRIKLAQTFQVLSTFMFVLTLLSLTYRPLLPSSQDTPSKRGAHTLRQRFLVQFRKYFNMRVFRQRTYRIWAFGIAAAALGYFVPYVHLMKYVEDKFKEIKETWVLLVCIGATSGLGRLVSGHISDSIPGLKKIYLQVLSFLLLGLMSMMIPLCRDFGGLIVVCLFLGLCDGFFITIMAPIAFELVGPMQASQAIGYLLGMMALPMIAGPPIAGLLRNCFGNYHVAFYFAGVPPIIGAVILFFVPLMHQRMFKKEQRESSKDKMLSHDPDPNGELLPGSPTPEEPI

[19] = LAT1 substrates, tracer concentration
[20] = LAT1 substrates, tracer concentration, perfusion 15-30 s
[21] = neutral fraction at perfusion fluid pH 7.40, calculated from pKa
[22] = ref Hansch et al. [123], Avdeef [46] or other sources

Lat-1, sequence (Q63016 whole entry): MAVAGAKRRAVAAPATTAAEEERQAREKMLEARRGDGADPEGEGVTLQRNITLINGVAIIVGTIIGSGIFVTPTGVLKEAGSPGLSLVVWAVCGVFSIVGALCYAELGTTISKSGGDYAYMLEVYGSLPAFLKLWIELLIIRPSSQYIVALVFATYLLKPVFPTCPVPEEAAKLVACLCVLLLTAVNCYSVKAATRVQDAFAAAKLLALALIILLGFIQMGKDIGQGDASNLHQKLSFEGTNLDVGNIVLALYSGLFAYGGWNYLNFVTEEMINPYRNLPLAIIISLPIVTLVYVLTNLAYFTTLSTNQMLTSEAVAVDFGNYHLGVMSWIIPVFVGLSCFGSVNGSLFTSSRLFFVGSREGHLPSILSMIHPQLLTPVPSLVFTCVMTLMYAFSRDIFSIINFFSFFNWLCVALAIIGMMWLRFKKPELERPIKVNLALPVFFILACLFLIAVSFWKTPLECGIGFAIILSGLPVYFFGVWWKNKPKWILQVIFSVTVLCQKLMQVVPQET
Lat-1, sequence (Q794F9 whole entry partner): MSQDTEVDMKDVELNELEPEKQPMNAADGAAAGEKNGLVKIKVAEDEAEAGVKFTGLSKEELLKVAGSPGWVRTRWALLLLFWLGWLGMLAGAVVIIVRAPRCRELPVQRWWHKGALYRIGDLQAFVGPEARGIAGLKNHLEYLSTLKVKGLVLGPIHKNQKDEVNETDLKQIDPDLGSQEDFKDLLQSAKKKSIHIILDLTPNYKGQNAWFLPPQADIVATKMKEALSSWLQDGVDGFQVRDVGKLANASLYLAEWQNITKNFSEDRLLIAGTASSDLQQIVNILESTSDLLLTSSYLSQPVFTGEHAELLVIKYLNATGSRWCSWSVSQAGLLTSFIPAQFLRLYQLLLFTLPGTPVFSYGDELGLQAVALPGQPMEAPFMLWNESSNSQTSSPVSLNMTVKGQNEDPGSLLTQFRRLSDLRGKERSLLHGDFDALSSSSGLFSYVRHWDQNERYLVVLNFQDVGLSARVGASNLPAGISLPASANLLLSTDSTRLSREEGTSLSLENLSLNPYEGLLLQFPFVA

## N[C@H](C(=O)O)[C@@H]1CC(Cl)=NO1 [Acivicin]
[1]; [19]
  LogPS: −3.32
[1]; [20]
  PS: 0.000479 mL/s/g
[2]
  Log Doct 7.4: −2.63
  Log Poct: −0.31

## Nc1ncnc2nc[nH]c12 [Adenine]
[2]
  Log Doct 7.4: −2.12

## Nc1ncnc2c1ncn2[C@@H]1O[C@H](CO)[C@@H](O)[C@H]1O [Adenosine]
[2]
  Log Doct 7.4: −1.02

## Cc1cc(=O)n(-c2ccccc2)n1C [Antipyrine]
[3]; brain
  half-life: 0.93 min
[4]
  Brain Kin: 0.0143 mL/s/g
  Extraction (unbound): 62.7%
  Brain vascular extraction (total): 59.7%
[5]
  brain vascular PS: 0.02 to 0.025 mL/s/g
[6]; [21]
  fn (%): 100%
[7]
  Brain Vu,br: 1.25 mL/g
[8]; rat in vivo measurements
  fu,.p: 0.92
[9]
  half-life: 1 min

## CCC1(CC)C(=O)NC(=O)NC1=O [Barbital]
[10]; [22]
  Log Poct: 0.65
  Log Doct pH=7.4: 0.64
[3]
  half-life: 3.63 min
[3]; plasma
  half-life: 3.6 min
[11]; in vivo, pH 7.4
  Log Pc: −4.42
  Log PoS: −2.32
  Pc: 38.1 ×10⁻⁶ cm/s
  PcS: 0.0038 mL/s/g
  PoS: 0.00477 mL/s/g
  Log Po: −4.32
  Po: 47.7 ×10⁻⁶ cm/s
[12]
  Brain Equilibration t1/2, Measured: 3.27 min
[6]; [21]
  fn (%): 79.9%
[8]; rat in vivo measurements
  fu,.p: 0.985

## C[N+](C)(C)CCO [Choline]
[13]
  Log PS: −2.89
[13]; S 20 s
  PS: 0.0013 mL/s/g
[2]
  Log Doct 7.4: −3.70

## OC[C@H]1OC(O)[C@H](O)[C@@H](O)[C@@H]1O (stereo partly drawn) [D-Glucose]
[14]; GLUT1
  Log PS: −2.16
[14]; GLUT1, S 16 s
  PS: 0.00694 mL/s/g
[15]
  Log Doct 7.4: −1.88

## CN1C(=O)CN=C(c2ccccc2)c2cc(Cl)ccc21 [Diazepam]
[6]; pH 7.4
  fn (%): 100%
[16]
  PS for liver membrane: 0.4 mL/s/g

## OCCO [Ethylene glycol]
[10]
  Log Doct pH=7.4: −1.36
[4]; plasma
  Brain Equilibration t1/2, Calculated: 21 min
[11]
  E of permeability markers: 2–4%
[11]; in vivo
  BBB PS / PoS over the flow range: 4 - 7x 10^-4
  Log Pc: −5.24
  Log PoS: −3.24
  PS Average used for normalization: 0.0006 mL/s/g
  Pc: 5.69 ×10⁻⁶ cm/s
  PcS: 0.00057 mL/s/g
  PoS: 0.000569 mL/s/g
  PoS, flow-corrected: 3–6 10^–4 mL/s/g
  Log Po: −5.24
  Po: 5.69 ×10⁻⁶ cm/s
[12]
  Brain Equilibration t1/2, Measured: 17 min
[6]; pH 7.4
  fn (%): 100%
[8]; rat
  fu,.p: 1.00

## O=C(CO)[C@@H](O)[C@H](O)[C@H](O)CO [Fructose]
[10]; [22]
  Log Poct: −3.20
  Log Doct pH=7.4: −3.20
[3]
  half-life: 168 min
[4]
  Brain Kin: 5.74e-06 mL/s/g
  Extraction (unbound): 2.39E-04%
  Brain vascular extraction (total): 2.39E-04%
[6]; [21]
  fn (%): 100%
[7]
  Brain Vu,br: 0.08 mL/g
[8]; rat in vivo measurements
  fu,.p: 1.00
[17]; Pc in cm/s
  Log Pc: −7.24
[17]; Po in cm/s
  Log Po: −7.24
[17]; PoS in mL/s/g
  Log PoS: −5.24
[17]; S assumed 100 cm^2/g
  Pc: 0.0574 ×10⁻⁶ cm/s
  Po: 0.0574 ×10⁻⁶ cm/s
[17]; brain vascular intrinsic PoS
  PoS: 5.74e-06 mL/s/g
[17]; cerebral cortex, flow 0.1–[…], S = physiological saline, AB = artificial blood
  PcS: 5.74e-06 mL/s/g
[17]; intrinsic PS of neutral solute, PoS = PcS/fn, flow 0.1–[…]
  PoS: 5.74e-06 mL/s/g

## NCC1(CC(=O)O)CCCCC1 [Gabapentin]
[1]; rat, in vivo, pH 7.4
  LogPS: −2.33
  PS: 0.00473 mL/s/g
[2]
  Log Doct 7.4: −1.4
  Log Poct: 1.19

## Nc1ccn([C@@H]2O[C@H](CO)[C@@H](O)C2(F)F)c(=O)n1 [Gemcitabine]
[2]
  Log Doct 7.4: −1.36
  Log Poct: −0.470

## CNC[C@H](N)C(=O)O [L-BMAA]
[1]; [19]
  LogPS: −3.27
[1]; [20]
  PS: 0.000542 mL/s/g
[2]
  Log Doct 7.4: −3.4
  Log Poct: −0.85

## N[C@@H](Cc1ccc(O)c(O)c1)C(=O)O [L-DOPA]
[1]; [19]
  LogPS: −1.99
[1]; [20]
  PS: 0.0102 mL/s/g
[2]
  Log Doct 7.4: −2.7
  Log Poct: −0.22

## CC(C)C[C@H](N)C(=O)O [L-Leucine]
[1]; [19]
  LogPS: −1.45
[1]; [20]
  PS: 0.0354 mL/s/g
[2]
  Log Doct 7.4: 0.73

## N[C@@H](Cc1ccccc1)C(=O)O [L-Phenylalanine]
[1]; [19]
  LogPS: −1.108
[1]; [20]
  PS: 0.078 mL/s/g
[2]
  Log Doct 7.4: −1.46
  Log Poct: 1.110

## N[C@@H](Cc1cc(I)c(Oc2ccc(O)c(I)c2)c(I)c1)C(=O)O [L-T3]
[18]
  PS: 0.0146 mL/s/g

## N[C@@H](Cc1ccc(N(CCCl)CCCl)cc1)C(=O)O [Melphalan (para)]
[2]
  Log Doct 7.4: −1.03
  Log Poct: 1.79

## CCCC(C)C1(CC)C(=O)NC(=O)NC1=O (stereo not shown) [Pentobarbital]
[10]; [22]
  Log Poct: 2.08
  Log Doct pH=7.4: 2.01
[3]
  half-life: 1.44 min
[3]; plasma
  half-life: 1.4 min
[11]; in vivo, pH 7.4
  Log Pc: −3.35
  Log PoS: −1.22
  Pc: 450 ×10⁻⁶ cm/s
  PcS: 0.045 mL/s/g
  PoS: 0.0599 mL/s/g
  Log Po: −3.22
  Po: 599 ×10⁻⁶ cm/s
[6]; [21]
  fn (%): 75.1%
[8]; rat in vivo measurements
  fu,.p: 0.60
[9]
  half-life: 1.15 min

## CC(C)C[C@H](CN)CC(=O)O [Pregabalin]
[1]; rat, in vivo, pH 7.4
  LogPS: −3.01
  PS: 0.000976 mL/s/g
[2]
  Log Doct 7.4: −1.75
  Log Poct: 1.12

## COC(=O)[C@H]1[C@H]2C[C@@H]3c4[nH]c5cc(OC)ccc5c4CCN3C[C@H]2C[C@@H](OC(=O)c2cc(OC)c(OC)c(OC)c2)[C@@H]1OC [Reserpine]
[10]; [22]
  Log Poct: 1.54
  Log Doct pH=7.4: 1.46
[3]; brain
  half-life: 0.77 min
[4]
  Brain Kin: 0.00749 mL/s/g
  Extraction (unbound): 97.6%
  Brain vascular extraction (total): 31.2%
[11]; in vivo, pH 7.4
  Log Pc: −3.05
  Log PoS: −0.97
  Pc: 898 ×10⁻⁶ cm/s
  PcS: 0.09 mL/s/g
  PoS: 0.11 mL/s/g
  Log Po: −2.97
  Po: 1080 ×10⁻⁶ cm/s
[6]; [21]
  fn (%): 83.37%
[7]
  Brain Vu,br: 5 mL/g
[8]; rat in vivo measurements
  fu,.p: 0.10

## Cn1nnc2c(C(N)=O)ncn2c1=O [Temozolamide]
[10]; [22]
  Log Poct: −1.04
  Log Doct pH=7.4: −1.04
[3]; brain
  half-life: 7.65 min
[4]
  Brain Kin: 0.00464 mL/s/g
  Extraction (unbound): 4.3%
  Brain vascular extraction (total): 5.3%
[11]; in vivo, pH 7.4
  Log Pc: −4.79
  Log PoS: −2.79
  Pc: 16.3 ×10⁻⁶ cm/s
  PcS: 0.0016 mL/s/g
  PoS: 0.00163 mL/s/g
  Log Po: −4.79
  Po: 16.3 ×10⁻⁶ cm/s
[6]; [21]
  fn (%): 100%
[7]
  Brain Vu,br: 1.05 mL/g
[8]; rat in vivo measurements
  fu,.p: 0.80

## CCCC(CCC)C(=O)O [Valproic acid]
[10]; [22]
  Log Poct: 2.71
  Log Doct pH=7.4: 0.21
[3]; brain
  half-life: 1.86 min
[4]
  Brain Kin: 0.0016 mL/s/g
  Extraction (unbound): 31.8%
  Brain vascular extraction (total): 6.7%
[11]; in vivo, pH 7.4
  Log Pc: −4.04
  Log PoS: 0.46
  Pc: 91.9 ×10⁻⁶ cm/s
  PcS: 0.0092 mL/s/g
  PoS: 2.92 mL/s/g
  Log Po: −1.54
  Po: 29200 ×10⁻⁶ cm/s
[6]; [21]
  fn (%): 0.16%
[7]
  Brain Vu,br: 1.43 mL/g
[8]; rat in vivo measurements
  fu,.p: 0.18
